Assay results: patent US20240381872A1, “SUBSTITUTED 2,3-DIHYDRO[1,3]THIAZOLO[4,5-B]PYRIDINES, SALTS THEREOF AND THEIR USE AS HERBICIDALLY ACTIVE SUBSTANCES” (BAYER AKTIENGESELLSCHAFT, priority 2021, published 2024)

How the values were obtained:
Type in all cases: in vivo
[1] = tested on: Alopecurus myosuroides (ALOMY); assay: Herbicidal pre-emergence action, section A (Table A2); conditions: application rate 1280 g/ha, visual grading after ca. 3 weeks vs untreated controls; for pest or weed control at 1280 g/ha: Alopecurus myosuroides, pre-emergence, 504 h, read-out: pre-emergence activity against ALOMY in %
Summary of the method: (§1)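 Percent herbicidal effect relative to untreated plants (0% = as control, 100% = died off) scored visually about 3 weeks after treatment. Compounds formulated as WP or EC were sprayed at 600 L/ha with 0.5% additive onto covering soil of freshly sown sandy-loam pots, then kept under greenhouse conditions.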

[2] = tested on: Matricaria inodora (MATIN); assay: Herbicidal pre-emergence action, section A (Table A6); conditions: visual grading after ca. 3 weeks vs untreated controls; for pest or weed control at 320 g/ha / pest or weed control at 1280 g/ha: Tripleurospermum inodorum, pre-emergence, 504 h, read-out: pre-emergence activity against MATIN in %; for pest or weed control at 320 g/ha: application rate 320 g/ha
Summary of the method: as §1

[3] = tested on: Setaria viridis (SETVI); assay: Herbicidal pre-emergence action, section A (Table A8); conditions: for pest or weed control at 320 g/ha / pest or weed control at 1280 g/ha: Setaria viridis, 504 h, read-out: pre-emergence activity against SETVI in %; for pest or weed control at 1280 g/ha: application rate 1280 g/ha
Summary of the method: as §1

[4] = tested on: Amaranthus retroflexus (AMARE); assay: Herbicidal pre-emergence action, section A (Table A11); conditions: application rate 320 g/ha; for pest or weed control at 320 g/ha: Amaranthus retroflexus, 504 h, read-out: pre-emergence activity against AMARE in %
Summary of the method: as §1

[5] = tested on: Digitaria sanguinalis (DIGSA); assay: Herbicidal pre-emergence action, section A (Table A12); conditions: for pest or weed control at 1280 g/ha / pest or weed control at 320 g/ha: Digitaria sanguinalis, 504 h, read-out: pre-emergence activity against DIGSA in %; for pest or weed control at 1280 g/ha: application rate 1280 g/ha
Summary of the method: as §1

[6] = tested on: Echinochloa crus-galli (ECHCG); assay: Herbicidal pre-emergence action, section C (Table C3); conditions: visual grading after ca. 3 weeks vs untreated controls; for pest or weed control at 80 g/ha / pest or weed control at 320 g/ha: Echinochloa crus-galli, pre-emergence, 504 h, read-out: pre-emergence activity against ECHCG in %; for pest or weed control at 80 g/ha: application rate 80 g/ha
Summary of the method: (§2)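 Seeds sown in sandy loam and covered with soil; compounds formulated as WP or EC were sprayed onto the covering soil as aqueous suspension/emulsion with 0.5% additive at 600 l water/ha. Pots kept in greenhouse under optimum conditions; damage graded visually after ca. 3 weeks versus untreated controls (0–100%).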

[7] = tested on: Setaria viridis (SETVI); assay: Herbicidal pre-emergence action, section C (Table C8); conditions: visual grading after ca. 3 weeks; for pest or weed control at 320 g/ha / pest or weed control at 80 g/ha: Setaria viridis, pre-emergence, 504 h, read-out: pre-emergence activity against SETVI in %; for pest or weed control at 320 g/ha: application rate 320 g/ha
Summary of the method: as §2

[8] = tested on: Alopecurus myosuroides (ALOMY); assay: Herbicidal post-emergence action, section E (Table E2); conditions: Alopecurus myosuroides, post-emergence, 504 h; application rate 320 g/ha; assessed visually after ca. 3 weeks; read-out: post-emergence activity against ALOMY in %
From the text: (§3) Seeds of mono- and dicotyledonous weed plants and crop plants were sown, in plastic or organic planting pots, in sandy loam, covered with soil and grown in a greenhouse under controlled growth conditions. 2 to 3 weeks after sowing, the test plants were sprayed in the single-leaf stage. The compounds according to the invention, formulated in form of wettable powders (WP) or as emulsifiable concentrates (EC), were sprayed onto the green plant parts as aqueous suspension or emulsion, with the addition of 0.5% of an additive, at an application rate of 600 l of water/ha (converted). The test plants were placed in the greenhouse for ca. 3 weeks under optimum growth conditions, and then the effect of the preparations was assessed visually in comparison with untreated controls (herbicidal effect in percent (%): 100% effect=plants have died off, 0% effect=as control plants).

[9] = tested on: Glycine max (GLXMA); assay: Post-emergence effects on crop plants, section F (Table F4)
Summary of the method: (§4)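 Crop seeds were sown in sandy loam in pots and greenhouse-grown; at the single-leaf stage, 2 to 3 weeks after sowing, plants were sprayed with WP or EC formulations plus 0.5% additive at 600 l water/ha, 320 g/ha or below. Damage was scored visually about 3 weeks later versus untreated controls (0–100%).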

[10] = tested on: Lolium rigidum (LOLRI); assay: Herbicidal pre-emergence action, section C (Table C5); conditions: Lolium rigidum, pre-emergence, 504 h, visual grading after ca. 3 weeks, read-out: pre-emergence activity against LOLRI in %
From the text: Seeds of mono- and dicotyledonous weed plants and crop plants were sown, in plastic or organic planting pots, in sandy loam and covered with soil. The compounds according to the invention, formulated in the form of wettable powders (WP) or as emulsifiable concentrates (EC), were applied to the surface of the covering soil as aqueous suspension or emulsion, with the addition of 0.5% of an additive, at an application rate of 600 l of water/ha (converted). Following treatment, the pots were placed in a greenhouse and kept under optimum growth conditions for the test plants. The visual grading of the damage to the test plants was carried out after ca. 3 weeks in comparison to untreated controls (herbicidal effect in percent (%): 100% effect=plants have died off, 0% effect=as control plants).

[11] = tested on: Amaranthus retroflexus (AMARE); assay: Herbicidal post-emergence action, section E (Table E3); conditions: Amaranthus retroflexus, post-emergence, 504 h; application rate 320 g/ha; assessed visually after ca. 3 weeks; read-out: post-emergence activity against AMARE in %
From the text: as §3

[12] = tested on: Zea mays (ZEAMX); assay: Post-emergence effects on crop plants, section F (Table F1); conditions: application rate 320 g/ha; for percent crop plant damage (phytotoxicity) on Zea mays, post-emergence at 320 g/ha: 504 h, read-out: post-emergence activity against ZEAMX in %
Summary of the method: as §4

[13] = Glycine max, 504 h, application rate 80 g/ha, read-out: post-emergence activity against GLXMA in %

Compound | pest or weed control at 1280 g/ha [1] | pest or weed control at 320 g/ha [2] | pest or weed control at 320 g/ha ([3]; application rate 320 g/ha) | pest or weed control at 320 g/ha [4] | pest or weed control at 1280 g/ha [5] | pest or weed control at 80 g/ha [6] | pest or weed control at 320 g/ha [7] | pest or weed control at 320 g/ha [8] | percent crop plant damage at 80 g/ha [9, 13] | pest or weed control at 1280 g/ha [3] | pest or weed control at 320 g/ha ([5]; application rate 320 g/ha) | pest or weed control at 80 g/ha ([7]; application rate 80 g/ha) | pest or weed control at 320 g/ha [11] | percent crop plant damage (phytotoxicity) on Zea mays, post-emergence at 320 g/ha [12] | pest or weed control at 1280 g/ha ([2]; application rate 1280 g/ha) | pest or weed control at 320 g/ha ([6]; application rate 320 g/ha) | other results
CCS(=O)(=O)N1C[S+]([O-])c2cc(C)c(-c3ccccc3C)nc21 (centres unmarked) [Example I-074] | 90% | 90% | 100% | 90% | 100% | 100% | 100% | 90% | 0% |  |  |  |  |  |  |  | 
CCS(=O)(=O)N1CSc2cc(C)c(-c3ccccc3F)nc21 [Example I-060, 3-(ethylsulfonyl)-5-(2-fluorophenyl)-6-methyl-2,3-dihydro[1,3]thiazolo[4,5-b]pyridine] | 90% | 90% |  | 90% |  | 100% |  | 90% |  | 100% | 100% | 100% | 90% | 0% |  |  | pest or weed control at 80 g/ha ([10]; application rate 80 g/ha): 100%
Cc1cc2c(nc1-c1ccccc1)N(C(=O)C1(C)CC(Cl)=NO1)CS2 (centres unmarked) [Example I-088] |  |  |  |  |  |  |  |  |  |  |  |  |  |  |  |  | pre-emergence activity against ALOMY in % [1]: 100%; pre-emergence activity against MATIN in % ([2]; application rate 1280 g/ha): 90%; pre-emergence activity against SETVI in % ([3]; application rate 320 g/ha): 100%; pre-emergence activity against AMARE in % [4]: 90%; pre-emergence activity against DIGSA in % ([5]; application rate 320 g/ha): 100%; pre-emergence activity against ECHCG in % ([6]; application rate 320 g/ha): 100%; pre-emergence activity against SETVI in % ([7]; application rate 80 g/ha): 100%; post-emergence activity against ZEAMX in % ([12]; crop plant damage): 0%; post-emergence activity against GLXMA in % ([9]; crop plant damage, application rate 80 g/ha): 0%
CC(=O)N1CSc2cc(Br)c(-c3ccccc3Cl)nc21 [Example I-055, 1-[6-bromo-5-(2-chlorophenyl)[1,3]thiazolo[4,5-b]pyridin-3(2H)-yl]ethanone] | 90% |  |  | 90% |  |  | 100% |  |  | 100% | 100% |  | 80% | 0% | 90% | 100% | pest or weed control at 320 g/ha ([10]; application rate 320 g/ha): 90%; percent crop plant damage at 320 g/ha ([9]; Glycine max, 504 h, application rate 320 g/ha, read-out: post-emergence activity against GLXMA in %): 20%
Clc1ccccc1-c1nc2c(cc1Br)SCN2 [Example I-041, 6-bromo-5-(2-chlorophenyl)-2,3-dihydro[1,3]thiazolo[4,5-b]pyridine] | 90% |  | 100% | 90% | 100% |  |  |  | 0% |  |  | 90% |  | 20% | 90% | 100% | 
CC1(C(=O)N2CSc3cc(Br)c(-c4ccccc4Cl)nc32)CC(Cl)=NO1 (centres unmarked) [Example I-141, [6-bromo-5-(2-chlorophenyl)[1,3]thiazolo[4,5-b]pyridin-3(2H)-yl](3-chloro-5-methyl-4,5-dihydro-1,2-oxazol-5-yl)methanone] | 90% |  | 100% | 100% | 100% |  | 100% |  | 20% |  |  |  | 80% | 0% | 90% | 100% | 
